Measurements published in ChEMBL document CHEMBL4507324 (2021).

Experiments:
Conditions in all cases: Compound concentration 100.0 nM
[1] = target: Ephrin type-A receptor 8 (Homo sapiens) (UniProt P29322)
[2] = target: Glycogen synthase kinase-3 beta (Homo sapiens) (UniProt P49841)
[3] = target: Casein kinase I isoform gamma-2 (Homo sapiens) (UniProt P78368)
[4] = target: Inhibitor of nuclear factor kappa-B kinase subunit beta (Homo sapiens) (UniProt O14920)
[5] = target: Tyrosine-protein kinase JAK3 (Homo sapiens) (UniProt P52333)
[6] = target: Phosphatidylinositol 4-phosphate 5-kinase type-1 alpha (Homo sapiens) (UniProt Q99755)
[7] = target: Serine/threonine-protein kinase ICK (Homo sapiens) (UniProt Q9UPZ9)
[8] = tested on: Proto-oncogene tyrosine-protein kinase receptor Ret (Homo sapiens), P07949 [M918T]
[9] = target: TGF-beta receptor type-1 (Homo sapiens) (UniProt P36897)
[10] = target: Mitogen-activated protein kinase kinase kinase kinase 5 (Homo sapiens) (UniProt Q9Y4K4)
[11] = target: Mitogen-activated protein kinase kinase kinase 12 (Homo sapiens) (UniProt Q12852)
[12] = target: Protein kinase C theta type (Homo sapiens) (UniProt Q04759)
[13] = target: Serine/threonine-protein kinase 36 (Homo sapiens) (UniProt Q9NRP7)
[14] = tested on: Tyrosine-protein kinase ABL1 (Homo sapiens), P00519 [H396P]
[15] = tested on: Mast/stem cell growth factor receptor Kit (Homo sapiens), P10721 [V559D]
[16] = target: LIM domain kinase 1 (Homo sapiens) (UniProt P53667)
[17] = tested on: Phosphatidylinositol 4,5-bisphosphate 3-kinase catalytic subunit alpha isoform (Homo sapiens), P42336 [Q546K]
[18] = target: Dual specificity tyrosine-phosphorylation-regulated kinase 1A (Homo sapiens) (UniProt Q13627)
[19] = target: Mitogen-activated protein kinase kinase kinase kinase 1 (Homo sapiens) (UniProt Q92918)
[20] = target: Wee1-like protein kinase 2 (Homo sapiens) (UniProt P0C1S8)
[21] = target: Rhodopsin kinase GRK1 (Homo sapiens) (UniProt Q15835)
[22] = tested on: Receptor-type tyrosine-protein kinase FLT3 (Homo sapiens), P36888 [D835Y]
[23] = tested on: Epidermal growth factor receptor (Homo sapiens), P00533 [UNDEFINED MUTATION]
[24] = target: Mast/stem cell growth factor receptor Kit (Homo sapiens) (UniProt P10721)
[25] = target: Leukocyte tyrosine kinase receptor (Homo sapiens) (UniProt P29376)
[26] = target: Tyrosine-protein kinase JAK1 (Homo sapiens) (UniProt P23458)
[27] = target: Serine/threonine-protein kinase WNK1 (Homo sapiens) (UniProt Q9H4A3)
[28] = target: Mitogen-activated protein kinase kinase kinase 1 (Homo sapiens) (UniProt Q13233)
[29] = target: Tyrosine-protein kinase receptor UFO (Homo sapiens) (UniProt P30530)
[30] = tested on: Receptor-type tyrosine-protein kinase FLT3 (Homo sapiens), P36888 [K663Q]
[31] = target: Aurora kinase B (Homo sapiens) (UniProt Q96GD4)
[32] = tested on: Tyrosine-protein kinase ABL1 (Homo sapiens), P00519 [T315I]
[33] = target: Tyrosine-protein kinase Lck (Homo sapiens) (UniProt P06239)
[34] = target: Serine/threonine-protein kinase PAK 5 (Homo sapiens) (UniProt Q9P286)
[35] = target: Mitogen-activated protein kinase kinase kinase 13 (Homo sapiens) (UniProt O43283)
[36] = target: Mitogen-activated protein kinase kinase kinase 11 (Homo sapiens) (UniProt Q16584)
[37] = target: Homeodomain-interacting protein kinase 4 (Homo sapiens) (UniProt Q8NE63)
[38] = target: 1-phosphatidylinositol 3-phosphate 5-kinase (Homo sapiens) (UniProt Q9Y2I7)
[39] = target: Cyclin-dependent kinase 2 homolog (Plasmodium falciparum (isolate 3D7)) (UniProt P61075)
[40] = target: Casein kinase I isoform gamma-1 (Homo sapiens) (UniProt Q9HCP0)
[41] = target: Bone morphogenetic protein receptor type-1B (Homo sapiens) (UniProt O00238)
[42] = tested on: Mast/stem cell growth factor receptor Kit (Homo sapiens), P10721 [D816V]
[43] = target: Mitogen-activated protein kinase 12 (Homo sapiens) (UniProt P53778)
[44] = target: Ribosomal protein S6 kinase beta-1 (Homo sapiens) (UniProt P23443)
[45] = target: Serine/threonine-protein kinase MARK2 (Homo sapiens) (UniProt Q7KZI7)

Measured: residual activity

Mast/stem cell growth factor receptor Kit (Homo sapiens), sequence (P10721 whole entry): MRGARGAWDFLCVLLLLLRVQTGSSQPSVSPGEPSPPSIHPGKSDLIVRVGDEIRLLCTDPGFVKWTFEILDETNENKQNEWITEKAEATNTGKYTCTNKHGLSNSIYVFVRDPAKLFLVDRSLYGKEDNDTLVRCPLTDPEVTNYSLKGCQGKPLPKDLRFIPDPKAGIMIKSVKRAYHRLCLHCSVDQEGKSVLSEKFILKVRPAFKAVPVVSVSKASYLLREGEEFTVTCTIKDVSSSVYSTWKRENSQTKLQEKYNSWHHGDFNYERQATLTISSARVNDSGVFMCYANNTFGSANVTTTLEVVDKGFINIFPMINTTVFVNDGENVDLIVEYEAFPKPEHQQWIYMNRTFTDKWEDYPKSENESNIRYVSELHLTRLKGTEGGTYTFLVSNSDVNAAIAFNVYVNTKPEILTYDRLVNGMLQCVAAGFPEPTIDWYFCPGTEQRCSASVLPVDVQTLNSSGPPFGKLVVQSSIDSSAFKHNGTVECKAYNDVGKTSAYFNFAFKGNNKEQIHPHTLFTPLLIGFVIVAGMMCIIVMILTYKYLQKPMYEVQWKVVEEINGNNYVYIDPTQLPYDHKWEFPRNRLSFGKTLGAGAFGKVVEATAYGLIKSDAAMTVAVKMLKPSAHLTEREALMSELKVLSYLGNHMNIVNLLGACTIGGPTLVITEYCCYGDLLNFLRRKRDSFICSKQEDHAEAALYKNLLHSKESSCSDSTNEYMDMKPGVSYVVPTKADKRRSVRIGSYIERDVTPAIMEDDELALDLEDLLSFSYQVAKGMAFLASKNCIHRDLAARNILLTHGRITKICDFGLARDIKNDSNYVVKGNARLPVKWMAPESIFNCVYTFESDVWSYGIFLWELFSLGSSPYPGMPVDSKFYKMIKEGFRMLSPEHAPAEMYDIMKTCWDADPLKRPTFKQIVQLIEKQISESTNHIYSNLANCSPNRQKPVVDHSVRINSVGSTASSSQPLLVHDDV
1-phosphatidylinositol 3-phosphate 5-kinase (Homo sapiens), sequence (Q9Y2I7 whole entry): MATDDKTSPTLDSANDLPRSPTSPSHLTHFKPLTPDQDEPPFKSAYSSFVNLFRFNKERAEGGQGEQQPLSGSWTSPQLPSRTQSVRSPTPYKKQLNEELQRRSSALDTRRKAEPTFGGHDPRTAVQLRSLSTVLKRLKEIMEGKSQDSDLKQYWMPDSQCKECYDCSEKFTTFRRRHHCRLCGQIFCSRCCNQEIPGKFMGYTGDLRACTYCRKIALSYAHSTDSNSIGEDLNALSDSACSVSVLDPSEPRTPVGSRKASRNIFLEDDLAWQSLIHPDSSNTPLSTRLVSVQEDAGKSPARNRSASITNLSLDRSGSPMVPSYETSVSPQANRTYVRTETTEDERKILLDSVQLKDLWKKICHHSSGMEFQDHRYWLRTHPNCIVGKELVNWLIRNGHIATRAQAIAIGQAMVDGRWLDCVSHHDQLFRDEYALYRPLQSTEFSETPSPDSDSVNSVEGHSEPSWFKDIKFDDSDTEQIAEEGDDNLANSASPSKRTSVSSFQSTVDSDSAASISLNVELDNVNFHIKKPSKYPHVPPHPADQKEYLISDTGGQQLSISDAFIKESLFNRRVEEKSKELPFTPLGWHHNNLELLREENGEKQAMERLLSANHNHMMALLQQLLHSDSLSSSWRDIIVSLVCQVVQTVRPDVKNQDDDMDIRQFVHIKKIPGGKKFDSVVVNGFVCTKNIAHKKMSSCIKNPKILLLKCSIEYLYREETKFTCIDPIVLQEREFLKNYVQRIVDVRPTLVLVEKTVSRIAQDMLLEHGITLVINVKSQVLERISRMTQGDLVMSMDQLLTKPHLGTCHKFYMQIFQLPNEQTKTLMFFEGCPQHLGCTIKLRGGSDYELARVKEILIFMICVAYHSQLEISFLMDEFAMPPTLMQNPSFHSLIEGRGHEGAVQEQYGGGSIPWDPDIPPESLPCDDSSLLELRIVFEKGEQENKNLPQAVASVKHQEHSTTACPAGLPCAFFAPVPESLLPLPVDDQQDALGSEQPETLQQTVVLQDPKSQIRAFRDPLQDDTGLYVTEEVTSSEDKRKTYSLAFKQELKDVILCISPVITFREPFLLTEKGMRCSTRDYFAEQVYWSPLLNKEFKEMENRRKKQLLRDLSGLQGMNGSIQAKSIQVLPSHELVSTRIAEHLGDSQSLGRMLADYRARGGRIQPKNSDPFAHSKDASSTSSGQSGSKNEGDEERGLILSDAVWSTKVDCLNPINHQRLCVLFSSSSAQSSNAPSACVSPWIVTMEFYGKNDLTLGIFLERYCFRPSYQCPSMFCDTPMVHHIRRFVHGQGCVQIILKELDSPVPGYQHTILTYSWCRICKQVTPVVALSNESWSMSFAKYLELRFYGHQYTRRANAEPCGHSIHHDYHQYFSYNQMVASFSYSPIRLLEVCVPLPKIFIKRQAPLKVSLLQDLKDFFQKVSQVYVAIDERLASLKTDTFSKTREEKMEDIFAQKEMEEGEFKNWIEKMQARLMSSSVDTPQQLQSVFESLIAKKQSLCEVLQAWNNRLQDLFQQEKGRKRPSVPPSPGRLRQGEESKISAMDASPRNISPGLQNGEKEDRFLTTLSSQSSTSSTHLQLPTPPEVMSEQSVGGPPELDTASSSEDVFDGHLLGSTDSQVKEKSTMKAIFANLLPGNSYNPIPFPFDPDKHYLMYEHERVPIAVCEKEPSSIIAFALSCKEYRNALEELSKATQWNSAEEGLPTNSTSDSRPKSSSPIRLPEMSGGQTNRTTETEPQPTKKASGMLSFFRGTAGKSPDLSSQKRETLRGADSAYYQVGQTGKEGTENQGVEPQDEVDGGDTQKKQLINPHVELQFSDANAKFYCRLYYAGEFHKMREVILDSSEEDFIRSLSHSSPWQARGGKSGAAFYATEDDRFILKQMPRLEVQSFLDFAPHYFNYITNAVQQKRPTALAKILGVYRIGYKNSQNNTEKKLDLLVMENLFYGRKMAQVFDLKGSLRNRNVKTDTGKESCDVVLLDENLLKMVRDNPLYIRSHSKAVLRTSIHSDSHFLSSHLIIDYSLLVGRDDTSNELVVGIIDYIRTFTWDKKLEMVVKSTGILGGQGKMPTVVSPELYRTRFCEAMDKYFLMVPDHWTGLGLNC
Tyrosine-protein kinase JAK1 (Homo sapiens), sequence (P23458 whole entry): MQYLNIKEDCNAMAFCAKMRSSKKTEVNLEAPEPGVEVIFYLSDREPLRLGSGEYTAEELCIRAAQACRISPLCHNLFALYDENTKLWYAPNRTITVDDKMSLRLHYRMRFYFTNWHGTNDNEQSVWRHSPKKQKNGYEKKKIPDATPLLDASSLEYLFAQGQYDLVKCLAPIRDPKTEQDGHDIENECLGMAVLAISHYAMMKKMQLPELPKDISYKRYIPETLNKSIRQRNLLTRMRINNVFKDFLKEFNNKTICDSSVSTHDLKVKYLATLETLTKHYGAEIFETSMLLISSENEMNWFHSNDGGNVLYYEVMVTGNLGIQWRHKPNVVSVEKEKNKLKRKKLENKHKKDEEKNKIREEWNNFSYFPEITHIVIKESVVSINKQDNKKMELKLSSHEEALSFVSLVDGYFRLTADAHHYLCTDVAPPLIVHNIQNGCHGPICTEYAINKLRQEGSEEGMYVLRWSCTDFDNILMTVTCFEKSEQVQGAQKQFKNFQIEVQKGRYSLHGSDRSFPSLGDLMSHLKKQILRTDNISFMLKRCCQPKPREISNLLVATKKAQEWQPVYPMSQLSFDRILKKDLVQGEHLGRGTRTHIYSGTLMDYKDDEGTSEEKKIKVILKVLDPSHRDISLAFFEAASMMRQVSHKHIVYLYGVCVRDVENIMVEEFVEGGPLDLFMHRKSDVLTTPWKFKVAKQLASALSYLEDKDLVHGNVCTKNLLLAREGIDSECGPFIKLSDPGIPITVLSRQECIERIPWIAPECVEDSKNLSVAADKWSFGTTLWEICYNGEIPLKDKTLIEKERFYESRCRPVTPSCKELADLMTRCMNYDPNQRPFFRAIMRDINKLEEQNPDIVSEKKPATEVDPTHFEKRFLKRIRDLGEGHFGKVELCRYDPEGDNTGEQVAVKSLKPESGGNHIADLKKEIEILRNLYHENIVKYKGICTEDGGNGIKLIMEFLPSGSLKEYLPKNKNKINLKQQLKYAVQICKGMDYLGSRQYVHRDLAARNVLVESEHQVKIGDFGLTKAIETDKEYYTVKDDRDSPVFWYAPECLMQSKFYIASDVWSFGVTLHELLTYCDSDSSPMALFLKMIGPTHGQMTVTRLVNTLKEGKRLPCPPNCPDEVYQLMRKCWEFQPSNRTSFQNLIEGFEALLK
Rhodopsin kinase GRK1 (Homo sapiens), sequence (Q15835 whole entry): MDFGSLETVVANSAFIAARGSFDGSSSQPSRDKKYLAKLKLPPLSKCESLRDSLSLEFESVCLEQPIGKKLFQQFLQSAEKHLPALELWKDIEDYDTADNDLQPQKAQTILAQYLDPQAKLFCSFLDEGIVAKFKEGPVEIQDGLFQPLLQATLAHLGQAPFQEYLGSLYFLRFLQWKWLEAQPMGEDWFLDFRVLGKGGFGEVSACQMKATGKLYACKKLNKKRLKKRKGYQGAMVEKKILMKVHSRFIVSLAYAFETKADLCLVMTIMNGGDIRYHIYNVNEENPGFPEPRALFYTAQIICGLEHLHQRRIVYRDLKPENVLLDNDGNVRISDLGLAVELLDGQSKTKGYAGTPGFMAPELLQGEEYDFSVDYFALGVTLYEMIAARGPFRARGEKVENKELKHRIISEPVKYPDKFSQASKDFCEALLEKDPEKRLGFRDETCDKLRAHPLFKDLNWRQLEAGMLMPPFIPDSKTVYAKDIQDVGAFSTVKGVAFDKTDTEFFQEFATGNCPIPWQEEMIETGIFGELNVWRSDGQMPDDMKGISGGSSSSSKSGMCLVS
Cyclin-dependent kinase 2 homolog (Plasmodium falciparum (isolate 3D7)), sequence (P61075 whole entry, canonical isoform): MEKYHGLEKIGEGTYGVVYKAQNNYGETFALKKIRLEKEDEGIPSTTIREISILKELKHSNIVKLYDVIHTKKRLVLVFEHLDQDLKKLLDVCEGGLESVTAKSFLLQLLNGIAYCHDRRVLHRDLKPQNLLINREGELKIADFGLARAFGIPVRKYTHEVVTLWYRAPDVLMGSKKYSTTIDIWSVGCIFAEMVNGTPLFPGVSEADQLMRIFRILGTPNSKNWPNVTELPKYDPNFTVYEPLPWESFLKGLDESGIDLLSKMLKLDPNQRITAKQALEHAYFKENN
Mast/stem cell growth factor receptor Kit (Homo sapiens), P10721 [D816V], sequence (P10721 whole entry D816V): as the sequence (P10721 whole entry) above, with D816V counted along it

CS(=O)(=O)N1CCCC(NC(=O)[C@H](CCC2CCCCC2)NC(=O)c2ccc(CNc3ncnc4c3nnn4-c3ccccc3)cc2)C1 (stereo not given in full) [SR-301]
inactive: [1] 100% | [2] 100% | [3] 82% | [4] 100% | [5] 100% | [6] 100% | [7] 100% | [8] 93% | [9] 100% | [10] 76% | [11] 100% | [12] 90% | [13] 97% | [14] 100% | [15] 93% | [16] 100% | [17] 60% | [18] 87% | [19] 100% | [20] 100% | [21] 94% | [22] 93% | [23] 66% | [24] 89% | [25] 100% | [26] 100% | [27] 100% | [28] 81% | [29] 79% | [30] 94% | [31] 100% | [32] 100% | [33] 100% | [34] 100% | [35] 100% | [36] 92% | [37] 100% | [38] 61% | [39] 100% | [40] 100% | [41] 91% | [42] 100% | [43] 100% | [44] 100% | [45] 100%

CS(=O)(=O)N1CCCC(NC(=O)[C@H](CCC2CCCCC2)NC(=O)c2ccc(CNC(=O)c3cnc4ccccn34)cc2)C1 (stereo not given in full) [SR-302]
active: [15] 49%
inactive: [1] 89% | [2] 100% | [3] 70% | [4] 100% | [5] 69% | [6] 89% | [7] 100% | [8] 93% | [9] 84% | [10] 100% | [11] 100% | [12] 97% | [13] 100% | [14] 100% | [16] 75% | [17] 90% | [18] 100% | [19] 95% | [20] 97% | [21] 100% | [22] 100% | [23] 99% | [24] 63% | [25] 100% | [26] 64% | [27] 99% | [28] 100% | [29] 96% | [30] 100% | [31] 95% | [32] 100% | [33] 83% | [34] 97% | [35] 74% | [36] 100% | [37] 88% | [38] 100% | [39] 100% | [40] 100% | [41] 100% | [42] 100% | [43] 100% | [44] 100% | [45] 100%
